Test results taken from patent publication US12521406B2, “Use of compounds in the treatment of fungal infections” (Basilea Pharmaceutica International AG, Allschwil, priority 2020, dated 2026).

Key:
[1] = system: Aspergillus spp. or rare molds; test: Phase 2 open-label study in patients with invasive mold infections; type: in vivo, human; details: 12 patients treated
Text: This is a Phase 2, multicenter, open-label, non-comparative study to evaluate the safety and efficacy of compound 1 for the treatment of IMIs caused by Aspergillus spp. or rare molds (e.g., Scedosporium spp., Fusarium spp., and Mucorales fungi). Patients 18 years of age or older will undergo Screening procedures for up to 5 days, following which eligible patients will participate in the study drug Treatment Period for up to 6 weeks, with a Follow-Up Visit 4 weeks after EOST, and a Follow-Up Phone Call 12 weeks after Day 1 (Day 84). The total duration of a patient's participation in the study will be approximately 12 weeks, inclusive of the follow-up telephone call required on Day 84. Patients who require treatment for longer than 6 weeks can be switched to other licensed antifungal therapy (OLAT) at the discretion of the Investigator and in consultation with the Medical Monitor if the situation allows.
This study will consist of a single treatment arm consisting of a loading dose of 1000 mg compound 1, administered over 3 hours by IV infusion twice daily (BID) within the first 24 hours after initiation of the first infusion. On Days 2 and 3, 600 mg compound 1 will be administered over 3 hours by IV infusion once daily (QD). […]

[2] = in vivo
[3] = system: A. fumigatus; test: PK-PD study in immunocompromised mice infected with 6 strains of A. fumigatus; type: in vivo; details: fungal burden (CEs by qPCR) in lung homogenates at 96 hours; 6 A. fumigatus strains
Experimental: Pharmacokinetic-pharmacodynamic (PK-PD) studies in immunosuppressed mice with invasive infections caused by A. fumigatus have shown that the area under the concentration-time curve (AUC) divided by the minimal effective concentration (MEC) ratio is the driver of efficacy.
In a pharmacokinetic/pharmacodynamic (PK-PD) study, immunocompromised mice were infected with 6 strains of A. fumigatus, inclusive of wild type, azole-resistant, and echinocandin-resistant strains. Groups of animals were dosed with compound 1 at different dose fractionations. […] The stasis and 1-logarithm drop endpoints were defined as the quantity of A. fumigatus in CEs just prior to compound 1 administration compared to CEs at the endpoint of assessment at 96 hours.

[4] = system: Fusarium, Aspergillus/Lichtheimia, C. albicans, L. prolificans infection; details: human, in vivo
Text: Population: A total of 15 patients with life-threatening/serious fungal infections received treatment, with slight modifications. […] Of these patients, 12 have an invasive Fusarium infection, while the remaining patients have Aspergillus/Lichtheimia infection, C. albicans infection, and L. prolificans infection. […] These patients show a broad range of fungal infection sites with sinus, spine, ankle, skin, eye, brain, and disseminated infections all observed. Many of these patients also have an underlying disease/condition, such as AML/ALL/MDS, SC/solid organ transplantation, or trauma.
Updates to Dosing Regimen: Seven patients received IV dosing of compound 1, and six of these seven switched to oral doses. Eight patients received oral doses only. […] Additionally, eight patients received oral compound 1 at 400 mg BID rather than 800 mg QD.

[5] = Phase 1, healthy volunteers
Text: The duration of the multiple-dose regimens in these studies was 7, 14, and 42 days (6 weeks).
One dose regimen of compound 1 will be evaluated in this study.

[6] = system: Aspergillus fumigatus, Scedosporium prolificans, and Fusarium solani; test: 5-fluorouracil immunosuppressed mice with IMIs; type: in vivo
[7] = target: fungal glycosylphosphatidylinositol (GPI)-anchored wall transfer protein 1 (GWT1) enzyme (Saccharomyces cerevisiae, UniProt P47026); test: Inhibition of fungal GWT1 enzyme; type: biochemical
Text: (§1) Compound 1A inhibits the fungal glycosylphosphatidylinositol (GPI)-anchored wall transfer protein 1 (GWT1) enzyme, a highly conserved inositol acylase that catalyzes an early step in the GPI-anchored biosynthesis pathway. This inhibition has pleiotropic effects on the fungal cell due to inhibition of cell wall mannoprotein localization, which comprises cell wall integrity, biofilm formation, germ tube formation, and fungal growth.

[8] = target: T1, phosphatidylinositol glycan anchor biosynthesis class W (PIGW) protein (Homo sapiens, UniProt Q7Z7B1); test: Inhibition of PIGW, closest mammalian ortholog of GWT1; type: biochemical; details: closest mammalian ortholog of the fungal GWT1 protein
T1 sequence (Q7Z7B1 1-504): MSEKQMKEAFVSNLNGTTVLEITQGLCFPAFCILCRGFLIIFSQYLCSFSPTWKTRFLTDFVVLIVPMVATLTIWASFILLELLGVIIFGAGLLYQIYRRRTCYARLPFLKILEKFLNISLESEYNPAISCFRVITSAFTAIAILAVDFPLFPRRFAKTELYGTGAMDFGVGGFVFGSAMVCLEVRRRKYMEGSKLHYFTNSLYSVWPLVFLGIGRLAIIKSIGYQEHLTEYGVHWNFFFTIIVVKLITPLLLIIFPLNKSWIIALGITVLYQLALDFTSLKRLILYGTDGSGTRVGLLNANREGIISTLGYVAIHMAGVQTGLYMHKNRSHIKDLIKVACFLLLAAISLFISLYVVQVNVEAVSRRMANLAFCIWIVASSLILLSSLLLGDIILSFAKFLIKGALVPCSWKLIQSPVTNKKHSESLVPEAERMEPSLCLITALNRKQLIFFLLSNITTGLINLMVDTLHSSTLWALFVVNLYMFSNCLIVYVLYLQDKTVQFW
Text: as §1

[9] = system: Aspergillus spp. clinical isolates; test: 2017 and 2018 surveillance of antifungal activity against Aspergillus clinical isolates (MEC); type: cell-based; details: Aspergillus isolates likely to be found in the clinical patient population
Experimental: The MEC in […] (MEC90) for Aspergillus isolates likely to be found in the clinical patient population under study is 0.03 μg/mL.

[10] = system: Candida spp., Cryptococcus spp., Aspergillus spp., Scedosporium spp., Fusarium spp., and some Mucorales fungi; test: In vitro antifungal activity; type: cell-based
Text: These rare mold and rare yeast species generally pose no threat to healthy subjects, but can lead to invasive mold infections in immunocompromised individuals.

Chain of fungal glycosylphosphatidylinositol (GPI)-anchored wall transfer protein 1 (GWT1) enzyme (P47026 whole entry): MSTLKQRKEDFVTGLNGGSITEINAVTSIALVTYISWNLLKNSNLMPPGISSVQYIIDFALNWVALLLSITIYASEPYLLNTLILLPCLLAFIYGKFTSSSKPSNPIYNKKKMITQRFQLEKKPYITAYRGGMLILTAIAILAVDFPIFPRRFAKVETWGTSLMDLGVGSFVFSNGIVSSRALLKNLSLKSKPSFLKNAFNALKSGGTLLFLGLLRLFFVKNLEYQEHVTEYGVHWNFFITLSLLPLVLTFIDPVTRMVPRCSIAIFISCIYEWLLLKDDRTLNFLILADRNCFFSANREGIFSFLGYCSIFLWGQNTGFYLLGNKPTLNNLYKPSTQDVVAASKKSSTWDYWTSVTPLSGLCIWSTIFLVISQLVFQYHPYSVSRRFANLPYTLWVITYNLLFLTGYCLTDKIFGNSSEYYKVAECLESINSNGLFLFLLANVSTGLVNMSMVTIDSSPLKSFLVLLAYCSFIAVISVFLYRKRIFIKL

SMILES	patients with good response (at Day 42 or earlier) [1]	conversion of prodrug to active moiety compound 1A [2]	tissue distribution [2]	median total drug AUC/MEC which achieved 1-logarithm kill endpoint [3]	median total drug AUC/MEC which achieved stasis endpoint [3]	tolerability over extended treatment durations [4]	safety and tolerability of the dose regimen [5]	pulmonary fungal colony counts [6]	survival rates [6]	inhibition of fungal GWT1 enzyme [7]	inhibition of PIGW protein [8]	MEC90 [9]	in vitro antifungal activity ([10]; including azole- and echinocandin-resistant strains)	antifungal activity against clinical isolates of rare mold and rare yeast infections ([10]; rare molds and rare yeasts listed)
Nc1c(-c2cc(Cc3ccc(COc4ccccn4)cc3)no2)ccc[n+]1COP(=O)([O-])O [compound 1]	8 patients	rapidly converted in vivo by phosphatases	wide-tissue distribution, including the eye and central nervous system	5258.2	2801.6	generally well tolerated	safe and well tolerated							
Nc1ncccc1-c1cc(Cc2ccc(COc3ccccn3)cc2)no1 [Compound 1A]								reduced pulmonary fungal colony counts	statistically significantly improved survival rates	inhibits	does not inhibit	0.03 µg/mL	broad in vitro antifungal activity	antifungal activity against a broad range of clinical isolates
